# Paper PMC9227013, “Synthesis, Anticancer Potential and Comprehensive Toxicity Studies of Novel Brominated Derivatives of Bacterial Biopigment Prodigiosin from Serratia marcescens ATCC 27117” (Molecules, 2022)
# Like-named read-outs stand apart in the source and are kept apart here.
# How the values were obtained:
# MRC-5 (lung fibroblasts) = test: MTT antiproliferative assay on MRC-5 cells; type: cell-based; settings: for IC50: Homo sapiens
# Method: (§1) Selected cell lines MRC-5 (lung fibroblasts), A549 (lung cancer), A375 (melanoma, skin cancer), MDA-MB-231 (breast cancer), and HCT116 (colon cancer) were obtained from ATCC, Manassas, US. Antiproliferative activities of PG and its Br derivatives were measured using the standard colorimetric MTT [3-(4,5-dimethylthiazol-2-yl)-2,5-diphenyltetrazolium bromide] assay. Briefly, cells were plated in a 96-well flat-bottom plate (Sarstedt, Nümbrecht, Germany) at a concentration of 1 × 10^4 cells per well, grown in a humidified atmosphere of 95% air and 5% CO2 at 37 °C, and maintained as monolayer cultures in RPMI 1640 medium supplemented with 10% fetal bovine serum (FBS), 100 U/mL penicillin, and 100 μg/mL streptomycin (all media components from Gibco™ by Thermo Fischer Scientific CE). Each tested compound was added to the cells at a concentration of 0.05–100.00 μg/mL, and the treatment lasted for 48 h. The MTT assay was performed two times in four replicates, and the results were presented as a percentage of the DMSO-treated control that was arbitrarily set to 100%. Plates were read using the Tecan Infinite 200 Pro multiplate reader (Tecan Group Ltd., Männendorf, Switzerland).
# (§2) To assess the effect of the treatment duration, exposure of MRC-5 and HCT116 cells to PG and its Br derivatives was observed after 24 h, 48 h, and 72 h and measured using the MTT assay, as described above. MRC-5 and HCT-116 cells treated for 24 h were additionally analyzed using DM IL LED Inverted Microscope (Leica Microsystems, Mannheim, Germany) at 20× magnification.
# A549 (lung cancer) = test: MTT antiproliferative assay on A549 cells; type: cell-based; settings: Homo sapiens
# Method: as §1
# [1] = test system: A375 (melanoma, skin cancer); test: MTT antiproliferative assay on A375 cells; type: cell-based; settings: Homo sapiens
# Method: as §1
# [2] = test system: MDA-MB-231 (breast cancer); test: MTT antiproliferative assay on MDA-MB-231 cells; type: cell-based; settings: for IC50: Homo sapiens
# Method: as §1
# HCT116 (colon cancer) = test: MTT antiproliferative assay on HCT116 cells; type: cell-based; settings: for IC50: Homo sapiens
# Method: as §1, §2
# MRC-5 cells = test: Annexin V flow cytometry, early apoptosis; type: cell-based; settings: MRC-5, compound at IC50 concentration, 24 h
# Method: The eBioscience^TM Annexin V Apoptosis Detection Kit APC (Invitrogen by Thermo Fischer Scientific, Waltham, MA, USA) was used for the assessment of cellular integrity and the externalization of phosphatidylserine. MRC-5 cells were plated in a 6-well flat-bottom plate at a concentration of 2.5 × 10^5 cells per well, grown for 24 h in a humidified atmosphere of 95% air and 5% CO2 at 37 °C in RPMI 1640 medium supplemented with 10% fetal bovine serum (FBS), 100 U/mL penicillin, and 100 μg/mL streptomycin (Gibco™ by Thermo Fischer Scientific CE, Waltham, MA, USA). Each tested compound was added to the cells at IC50 concentration, and the incubation continued for another 24 h under the same conditions. Upon incubation, cells were collected, washed once with Dulbecco’s Phosphate-Buffered Saline (Gibco™ by Thermo Fischer Scientific CE, Waltham, MA, USA), and stained with Annexin V FITC and propidium iodide (PI) under the manufacturer’s instructions. Briefly, MRC-5 cells were resuspended in 1 × Binding Buffer at 1–5 × 10^6 cells per mL and incubated with 5.00 µL Annexin V FITC for 15 min at room temperature in a final volume of 100 μL. […] Immediately after staining, cells were analyzed using a CyFlow Space Partec flow cytometer, with Partec FloMax software (Partec GmbH, Münster, Germany).
# [3] = test system: Caenorhabditis elegans AU37; test: Roundworm (C. elegans) survival assay; type: in vivo; settings: for Survival rate: 48 h
# Method: Nematode roundworms (Caenorhabditis elegans AU37) were obtained from the Caenorhabditis Genetics Center (CGC), University of Minnesota, Minneapolis, Minnesota, US. C. elegans AU37 (glp-4; sek-1) was propagated under standard conditions, synchronized by hypochlorite bleaching, and cultured on nematode growth medium using E. coli OP50 as a food source, as described previously. The C. elegans survival assay was carried out following the standard procedure with some modifications. Briefly, synchronized worms (L4 stage) were suspended in a medium containing 95% M9 buffer (3.0 g of KH2PO4, 6.0 g of Na2HPO4, 5.0 g of NaCl, and 1 mL of 1 M MgSO4∙7H2O in 1 L of water), 5% LB broth, and 10 μg/mL of cholesterol (Sigma-Aldrich, Munich, Germany). The experiment was carried out in 96-well flat-bottomed microtiter plates (Sarstedt, Nümbrecht, Germany) in the final volume of 100 μL per well. 25 μL of this suspension of nematodes (25–35 nematodes) were transferred to the wells of a 96-well microtiter plate, where 50 μL of the medium was previously added. Next, 25 μL of the solvent control (1% DMSO) or 25 μL of the concentrated tested compound solution was added to the test wells. Final concentrations of the compounds were 50.00, 25.00, 12.50, 6.25, 3.13, and 1.57 µg/mL. Subsequently, the plates were incubated at 25 °C for 2 days. The fraction of dead worms was determined after 48 h by counting the number of dead worms and the total number of worms in each well, using a Carl Zeiss™ Stemi 508 Stereomicroscope (Zeiss Group, Jena, Germany) at 40× magnification. The compounds were tested three times in each assay and each assay was repeated two times (n = 6). As a negative control experiment, nematodes were exposed to the medium containing 1% DMSO.
# [4] = test system: zebrafish (Danio rerio) embryos; test: Zebrafish (D. rerio) embryotoxicity; type: in vivo; settings: for death rate: 10 µg/mL applied at 6 hpf
# Method: Wild-type zebrafish (Danio rerio) strain was obtained from the commercial supplier Pet Center, Belgrade, Serbia. Zebrafish embryotoxicity assay was performed according to general rules of the OECD Guidelines for the testing of chemicals. The wild-type zebrafish (D. rerio) strain was kept under controlled environmental conditions (water temperature 28 °C, 14 h under the light and 10 h in the dark) and fed regularly three times a day with commercially dry flake food supplemented with Artemia nauplii (TetraMinTM flakes; Tetra Melle, Germany). Zebrafish embryos were produced by female and male adults mating in the ratio of 1:2. Obtained embryos were collected and washed from detritus and carefully handled. Only fertilized embryos were selected and distributed into 24-well plates (Sarstedt, Germany) containing 10 embryos per well. Each well contained exactly 1 mL of water for embryos (0.2 g/L of Instant Ocean® Salt in distilled water). For assessing lethal and developmental toxicity, embryos at the 6 and 20 h postfertilization (hpf) stages were treated with selected compounds at concentrations of 0.1–100 μg/mL (maximum DMSO concentration in the negative control was 1%) and incubated at 28 °C. Experiments were performed in triplicate, using 30 embryos for each concentration. For five days, the appearance of different morphophysiological parameters in embryo development was monitored, and dead embryos were counted and discarded every 24 h. On the fifth day, the embryos were anesthetized by the addition of 0.1% (w/v) tricaine solution (Sigma-Aldrich, St. Louis, Missouri, US), observed under a stereomicroscope (SMZ-143-N2GG, Motic, Germany) at 3.5× magnification, photographed, and killed by freezing at −20 °C for ≥24 h. All experiments involving zebrafish were performed in compliance with the European directive 2010/63/EU and the ethical guidelines of the Guide for Care and Use of Laboratory Animals of the Institute of Molecular Genetics and Genetic Engineering, University of Belgrade, Serbia.
# [5] = test system: A549, A375, MDA-MB-231, and HCT116 cancer cell lines; test: MTT assay, whole cell line panel; type: cell-based; settings: 48 h
# Method: as §1
# A549 = settings: cited from earlier work
# melanoma cell line A375 = test system: melanoma cell line A375; design: method as in PMID 16736886; settings: cited from earlier work
# Breast cancer MDA-MB-231 = settings: cited from earlier work
# HCT116 colon cancer = test system: HCT116 colon cancer; design: method as in PMID 24247721; settings: HCT116, 72 h treatment; cited from earlier work
# [6] = test system: HFF (human foreskin fibroblasts) cells; design: method as in PMID 24247721; settings: cited from earlier work
# [7] = test system: C. elegans first stage juveniles; settings: cited from earlier work
# [8] = test system: juvenile Meloidogyne incognita J2; design: method as in doi:10.3390/agronomy12010041; settings: cited from earlier work
# Heterodera schachtii J2 = settings: cited from earlier work
# [9] = test system: 60-cell-line panel of the National Cancer Institute (NCI); settings: NCI 60-cell-line panel; cited from earlier work
# C. elegans = settings: PG obtained from S. marcescens; cited from earlier work
# [10] = test system: juveniles of Radopholus similis; settings: cited from earlier work
# Meloidogyne javanica = settings: cited from earlier work
# WI-38-40 (fibroblasts) = test system: WI-38-40 (fibroblasts); design: method as in printed; settings: WI-38-40, 72 h exposure; literature, ref not given; cited from earlier work
# [11] = test system: HBL-100 (breast epithelial cells); design: method as in printed; settings: HBL-100, 72 h exposure; literature, ref not given; cited from earlier work
# breast cancer cell lines = test system: breast cancer cell lines; design: method as in printed; settings: breast cancer cells, 72 h exposure; literature, ref not given; cited from earlier work
compound,measurement,setting,value
"CCCCCC1=CC(=Cc2[nH]c(-c3ccc[nH]3)cc2OC)N=C1C [PG, 4-Methoxy-5-[(5-methyl-4-pentyl-2H-pyrrol-2-ylidene)methyl]-1H,1'H-2,2'-bipyrrole]",IC50,"MRC-5 (lung fibroblasts); MRC5, 24 h",1.8 ± 0.04 µg/mL
same,IC50,"MRC-5 (lung fibroblasts); MRC5, 48 h",1.2 ± 0.04 µg/mL
same,IC50,"MRC-5 (lung fibroblasts); MRC5, 72 h",0.7 ± 0.02 µg/mL
same,fold lower IC50 of 72 h in comparison to 24 h exposure,MRC-5 (lung fibroblasts); MRC-5,2.5 fold
same,IC50,"A549 (lung cancer); A549, 48 h",1.3 ± 0.02 µg/mL
same,IC50,"[1]; A-375, 48 h",1.25 ± 0.04 µg/mL
same,IC50,"[2]; MDA-MB-231, 48 h",0.62 ± 0.01 µg/mL
same,selectivity between healthy and cancer cell lines,"[2]; MRC-5 vs breast cancer cells (MDA-MB-231), 48 h",1.9
same,IC50,"HCT116 (colon cancer); HCT-116, 24 h",5 ± 0.06 µg/mL
same,IC50,"HCT116 (colon cancer); HCT-116, 48 h",0.7 ± 0.02 µg/mL
same,IC50,"HCT116 (colon cancer); HCT-116, 72 h",0.8 ± 0.02 µg/mL
same,selectivity between healthy and cancer cell lines,"HCT116 (colon cancer); MRC-5 vs colon cancer cells (HCT116), 48 h",1.7
same,Annexin V Positive Cells,MRC-5 cells,20.3 ± 0.5%
same,Survival rate,[3]; 1.57 µg/mL,100 ± 0.00%
same,Survival rate,[3]; 3.13 µg/mL,100 ± 0.00%
same,Survival rate,[3]; 6.25 µg/mL,100 ± 0.00%
same,Survival rate,[3]; 12.50 µg/mL,100 ± 0.00%
same,Survival rate,[3]; 25.00 µg/mL,100 ± 0.00%
same,Survival rate,[3]; 50.00 µg/mL,100 ± 0.00%
same,death rate,[4],100%
same,effect on embryos,"[4]; 2.5 and 0.1 µg/mL, both at 6 hpf and 20 hpf","all the embryos survived, but developed into slightly smaller fish with microcephaly"
same,IC50,[5]; read-out: IC50 values range over the tested cancer cell lines,0.62 to 1.3 µg/mL
same,anticancer activity against A549 (lower end of literature range),A549,0.03 µg/mL
same,anticancer activity against A549 (upper end of literature range),A549,3.23 µg/mL
same,sensitivity of A375 to PG,melanoma cell line A375,0.70 µg/mL
same,sensitivity of MDA-MB-231 to PG (lower end of literature range),Breast cancer MDA-MB-231,0.02 µg/mL
same,sensitivity of MDA-MB-231 to PG (upper end of literature range),Breast cancer MDA-MB-231,0.68 µg/mL
same,IC50,HCT116 colon cancer,0.04 µg/mL
same,growth inhibition,[6]; 0.36 µg/mL PG,76.16%
same,IC50,[6]; 72 h of treatment,0.15 µg/mL
same,EC50,[7],0.04 µg/mL
same,IC50,[8],200 µg/mL
same,Effectiveness,Heterodera schachtii J2,4.30 µg/mL
same,average LC50,[9],0.68 µg/mL
same,toxicological assessment,C. elegans,no significant toxic activity
same,LC50,[10],83 µg/mL
same,LC50,Meloidogyne javanica,79 µg/mL
CCCCCC1=C(Br)/C(=C/c2[nH]c(-c3[nH]ccc3Br)cc2OC)N=C1C [PG-Br2],IC50,"MRC-5 (lung fibroblasts); MRC5, MRC-5, 48 h treatment, read-out: IC50",10 ± 0.09 µg/mL
same,IC50,"MRC-5 (lung fibroblasts); MRC5, MRC-5, exposure time 24 h, read-out: IC50",15 ± 0.05 µg/mL
same,IC50,"MRC-5 (lung fibroblasts); MRC5, MRC-5, exposure time 72 h, read-out: IC50",10 ± 0.08 µg/mL
same,IC50,"A549 (lung cancer); A549, 48 h treatment, read-out: IC50",16 ± 0.08 µg/mL
same,IC50,"[1]; A-375, A375, 48 h treatment, read-out: IC50",12 ± 0.04 µg/mL
same,IC50,"[2]; MDA-MB-231, 48 h treatment, read-out: IC50",17 ± 0.05 µg/mL
same,IC50,"HCT116 (colon cancer); HCT-116, HCT116, 48 h treatment, read-out: IC50",10 ± 0.08 µg/mL
same,IC50,"HCT116 (colon cancer); HCT-116, HCT116, exposure time 24 h, read-out: IC50",50 ± 0.09 µg/mL
same,IC50,"HCT116 (colon cancer); HCT-116, HCT116, exposure time 72 h, read-out: IC50",10 ± 0.05 µg/mL
same,Annexin V Positive Cells,MRC-5 cells,19.6 ± 0.6%
same,Survival rate,[3]; 1.57 µg/mL,100 ± 0.00%
same,Survival rate,[3]; 3.13 µg/mL,100 ± 0.00%
same,Survival rate,[3]; 6.25 µg/mL,100 ± 0.00%
same,Survival rate,[3]; 12.50 µg/mL,100 ± 0.00%
same,Survival rate,[3]; 25.00 µg/mL,100 ± 0.00%
same,Survival rate,[3]; 50.00 µg/mL,100 ± 0.00%
same,motility of nematodes,[3]; all tested concentrations,significantly impaired
same,death rate,[4],0%
same,embryos survival rate,"[4]; 20 µg/mL, 6 hpf and 20 hpf",100%
same,teratogenic effects,"[4]; 20 µg/mL, 6 hpf and 20 hpf",without any teratogenic effects
same,effect on embryos,"[4]; 50–70 µg/mL, application at 6 hpf",severe toxicity and abnormal development
same,lower cytotoxicity in comparison to PG,[5]; human,8-27 fold
cycloprodigiosin [cPG],dose for growth inhibition,WI-38-40 (fibroblasts),0.73 µg/mL
same,dose for growth inhibition,[11],0.57 µg/mL
same,IC50,breast cancer cell lines,0.15 to 0.20 µg/mL
